Seven compounds from patent US20210230178A1, “TRIOXACARCIN ANALOGS AND DIMERS AS POTENT ANTICANCER AGENTS” (William Marsh Rice University, priority 2017, published 2021) can be followed below.

Read-outs that look alike come from different tables or passages of the source.

For series [1], the system named is MES SA (human uterine sarcoma). The note with it: for IC50: read-out: IC50 MES SA.
Series [2] concerns MES SA DX (human uterine sarcoma cell line with marked multidrug resistance). The note with it: for IC50: read-out: IC50 MES SA DX.
Series [3] relates to HEK 293T (human embryonic kidney cancer cell line). The note with it: for IC50: read-out: IC50 HEK 293T.
Series [4] has as its system MES SA (human uterine sarcoma). The series is described as follows: cells. The note with it: 72 h, read-out: IC50 MES SA.
Series [5] deals with MES SA DX (human uterine sarcoma cell line with marked multidrug resistance). The series is described as follows: cells. The note with it: 72 h, read-out: IC50 MES SA DX.
For series [6], the system named is HEK 293T (human embryonic kidney cancer cell line). The series is described as follows: cells. The note with it: 72 h, read-out: IC50 HEK 293T.

Turning to `COc1c2c(c(OC(C)=O)c3c4c(c(C)cc13)[C@H]1O[C@]3(C5OCCCO5)O[C@@H]1[C@@](OC(C)=O)(O4)[C@@]31CO1)C(=O)CCC2` [Trx26, (1S,2S,3aS,4R,13aS)-2-(1,3-Dioxan-2-yl)-7-methoxy-5-methyl-11-oxo-3a,4,8,9,10,11-hexahydro-13aH-spiro[2,4-epoxyfuro[3,2-b]naphtho[2,3-h]chromene-1,2′-oxirane]-12,13a-diyl diacetate], in series [1], the “cytotoxic potency against MES SA, in words” value is reported as “no significant loss of potency”. Also, the “cytotoxic potency against MES SA DX, in words” value in series [2] is recorded as “no significant loss of potency”. For the same compound, the “cytotoxic potency against HEK 293T, in words” value in series [3] was “no significant loss of potency”. In addition, the results for the IC50 in series [4], in series [5] and in series [6] were 67.4 nM, 60.3 nM and 11.6 nM, respectively.

In the case of “(4R,5S,6R,10S)-8-{[(1S,2R)-2-(1,3-Dioxan-2-yl)-12-hydroxy-7-methoxy-5-methyl-11-oxo-3a,4,8,9,10,11-hexahydro-13aH-spiro[2,4-epoxyfuro[3,2-b]naphtho[2,3-h]chromene-1,2′-oxiran]-13a-yl]oxy}-4,6-dimethyl-2-oxo-1,3,7-trioxaspiro[4.5]dec-10-ylacetate [Trx22]”, the IC50 in series [1] was 5.74 nM; in series [2] it was 56.9 nM; in series [3], 4.2 nM.

As for `COc1c2c(c(O)c3c4c(c(C)cc13)C1OC3(C5OCCCO5)OC1[C@@](OCC=CCO[C@@]15Oc6c(c(C)cc7c(OC)c8c(c(O)c67)C(=O)CCC8)C6OC(C7OCCCO7)(OC61)[C@]51CO1)(O4)[C@@]31CO1)C(=O)CCC2` (stereo partly drawn) [Trx25, (1S,2S,3aS,4R,13aR,1′″S,2′″S,3a′″S,4′R,13a′″R)-13a,13a′-[(2E)-but-2-ene-1,4-diylbis(oxy)]bis[2-(1,3-dioxan-2-yl)-12-hydroxy-7-methoxy-5-methyl-3a,4,8,9,10,13a-hexahydro-11H-spiro[2,4-epoxyfuro[3,2-b]naphtho[2,3-h]chromene-1,2′-oxiran]-11-one]], the half-maximal inhibitory concentration (IC50) in series [1] was determined as 235 nM; in series [2] it was 429 nM; in series [3], 105 nM.

As for `COc1c2c(c(O)c3c4c(c(C)cc13)C1OC3(C5OCCCO5)OC1[C@@](OC)(O4)[C@@]31CO1)C(=O)CCC2` (stereo partly drawn) [Trx13], the IC50 in series [1] was found to be 0.56 nM; in series [2], 0.42 nM; in series [3] it was 0.4 nM; in series [4] it was 0.53 nM; in series [5] it was 0.38 nM; in series [6], 0.5 nM.

Turning to `COc1c2c(c(OC(C)=O)c3c4c(c(C)cc13)[C@H]1O[C@]3(C5OCCCO5)O[C@@H]1[C@@](OC)(O4)[C@@]31CO1)C(=O)CCC2` [Trx27, (1S,2S,3aS,4R,13aR)-2-(1,3-Dioxan-2-yl)-7,13a-dimethoxy-5-methyl-11-oxo-3a,8,9,10,11,13a-hexahydro-4H-spiro[2,4-epoxyfuro[3,2-b]naphtho[2,3-h]chromene-1,2′-oxiran]-12-yl acetate], the “cytotoxic potency against MES SA, in words” value in series [1] is “no significant loss of potency”. For the same compound, the “cytotoxic potency against MES SA DX, in words” value in series [2] was “no significant loss of potency”. The “cytotoxic potency against HEK 293T, in words” value in series [3] was “no significant loss of potency”. For the same compound, the IC50 worked out at 2.15 nM in series [4], 1.43 nM in series [5] and 1.24 nM in series [6].

For `COc1c2c(c(O)c3c4c(c(C)cc13)[C@@H]1O[C@@]3(C(OC)OC)O[C@@H]1[C@@](O[C@H]1C[C@@H](O)[C@@](O)(C(C)=O)[C@H](C)O1)(O4)[C@@]31CO1)C(=O)[C@@H](O)C[C@@H]2O[C@H]1C[C@@](C)(O)[C@H](O)[C@H](C)O1` [Trioxacarcin D, reference compound], the IC50 in series [1] was 11.1 nM; in series [2], > 1000 nM; in series [3] it was 8.02 nM.

For `COc1c2c(c(O)c3c4c(c(C)cc13)[C@@H]1O[C@@]3(C(OC)OC)O[C@@H]1[C@@](O[C@H]1C[C@@H](O)[C@@](O)(C(C)=O)[C@H](C)O1)(O4)[C@@]31CO1)C(=O)[C@@H](O)C[C@@H]2O[C@H]1C[C@@](C)(O)[C@H](OC(C)=O)[C@H](C)O1` [Trioxacarcin A], the results for the IC50 in series [1], in series [2] and in series [3] were 0.74 nM, 204 nM and 0.702 nM, respectively.

What is called IC50 is the midpoint of a concentration-inhibition curve.
